Laboratory results published in patent US20210301349A1, “COMPOSITIONS AND METHODS FOR TREATING A TUMOR SUPPRESSOR DEFICIENT CANCER” (BETH ISRAEL DEACONESS MEDICAL CENTER, INC., priority 2016, published 2021).
Entries after “also recorded” stand apart in the source; their conditions may differ.

Tests used:
[1] = system: Pten^pc−/−; Trp53^pc−/− tumors (anterior prostate lobes); assay: Histological analysis of treated Pten^pc−/−; Trp53^pc−/− tumors; type: in vivo, mouse; settings: Trp53^pc−/− mice, 10 days of i.p. treatment, versus vehicle
Description: (§1) Mice were allocated at random to experimental groups and studies were performed in an unblended manner. For treatment with the CXCR2 antagonist, SB225002 (Cayman Chemical #13336) was dissolved in DMSO (10 mg/ml) and diluted in vehicle (0.9% NaCl, 0.3% Tween 80) for in vivo administration. Mice (4 months of age) were treated daily for 10 days by intraperitoneal injection (5 mg/kg) and prostate tumor tissue (anterior lobes) was subjected to Flow Cytometry and histological analysis. For MRI analysis, mice (4 months of age) were treated daily for 21 days (Pten^pc−/−; Zbtb7a^pc−/−), for 14 days (Pten^pc−/−; Trp53^pc−/−) or for 14 days (Pten^pc−/−; Pml^pc−/−) by intraperitoneal injection (5 mg/kg). […] Tumor volume quantification was performed by using VivoQuant and Image J software. […]
For western blotting, cell lysates were prepared by homogenizing tumor tissue with NP40 Buffer (Boston Bioproducts) supplemented with protease (Roche) and HALT phosphatase inhibitor cocktails (Thermo Scientific) and subsequently subjected to SDS-Gel separation (Invitrogen) and western blotting. […] Western blots were quantified using Image J software. […] Embedding and hematoxylin and eosin staining of sections were performed by the Histology Core at BIDMC and analyzed by a pathologist. […]

[2] = system: Pten^pc−/−; Trp53^pc−/− prostate tumors; assay: Flow cytometry of immune infiltrate in treated Pten^pc−/−; Trp53^pc−/− prostate tumors; type: in vivo, mouse; settings: Trp53^pc−/− prostate tumors after treatment
Description: as §1, with “mg/kg). For depletion of Gr-1+/CD11b+ cells, Ly6G-depletion antibody (1A8, BioXcell) and control Rat IgG2a antibody (BioXcell) were diluted in phosphate-buffered saline (PBS) for in vivo administration. Mice (4 months of age) were treated every other day for 10 days by intraperitoneal injection (200-300 μg/mouse).” for “mg/kg).”
For Flow Cytometry, spleen and lymph node single cell suspensions were prepared by mashing the tissue in 2% FBS/PBS. […] All staining mixtures were analyzed on a BD LSR II flow cytometer (Becton Dickinson). Resulting profiles were further processed and analyzed using the FlowJo 8.7 software.

In the case of `O=C(Nc1ccc([N+](=O)[O-])cc1O)Nc1ccccc1Br` [SB225002], the “tumor burden by histological analysis” value [1] is reported as “reduced tumor burden”, the “tumor burden by histological analysis” value ([1]; listed as CXCR2 inhibitor) is reported as “significantly diminished tumor involvement” and the “Treg cells (Foxp3+)” value [2] is reported as “less Foxp3+ cells; also recorded: less Treg cells”. The “intra-tumoral Gr-1+/CD11b+ cells” value [2] was “decrease of Gr-1+/CD11b+ cells”.
